Here are results for eight molecules from patent US5674864A, “N-substituted derivatives of α-mercapto alkylamines, their preparation process and the intermediates obtained, their use as medicaments and the compositions containing them” (Roussel Uclaf, priority 1990, dated 1997).

For one experiment, the target named is T1, enkephalinase (Rattus norvegicus, UniProt P07861).
T1 construct: from tissue; host or cells: rat kidney, renal membrane fraction solubilised with octyl beta-D-glucopyranoside (100,000 g supernatant)
T1 sequence (P07861 1-750): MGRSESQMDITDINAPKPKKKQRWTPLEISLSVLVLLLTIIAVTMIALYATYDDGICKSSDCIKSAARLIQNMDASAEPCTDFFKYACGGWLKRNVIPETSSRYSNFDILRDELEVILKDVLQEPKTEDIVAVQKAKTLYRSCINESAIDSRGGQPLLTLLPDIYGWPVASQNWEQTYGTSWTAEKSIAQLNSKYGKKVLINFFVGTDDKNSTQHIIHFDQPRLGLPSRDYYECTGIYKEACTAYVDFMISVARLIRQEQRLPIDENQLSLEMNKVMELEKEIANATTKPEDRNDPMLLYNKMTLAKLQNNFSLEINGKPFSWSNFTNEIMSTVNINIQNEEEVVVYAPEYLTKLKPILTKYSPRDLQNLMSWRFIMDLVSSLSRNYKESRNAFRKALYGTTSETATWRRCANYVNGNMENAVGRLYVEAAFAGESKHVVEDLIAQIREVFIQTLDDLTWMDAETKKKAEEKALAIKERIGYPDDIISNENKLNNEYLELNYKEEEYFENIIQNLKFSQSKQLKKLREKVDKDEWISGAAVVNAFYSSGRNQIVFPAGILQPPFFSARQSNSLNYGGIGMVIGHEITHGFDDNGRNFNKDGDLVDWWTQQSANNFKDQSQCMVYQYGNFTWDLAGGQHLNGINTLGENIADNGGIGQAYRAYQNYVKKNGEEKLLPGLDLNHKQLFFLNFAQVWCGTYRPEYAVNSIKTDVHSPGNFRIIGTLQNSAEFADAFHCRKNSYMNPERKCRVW
Description: Determination of the enkephalinase inhibiting effect. In kind it is biochemical. To be noted: renal membrane fraction of a rat; substrate Succinyl-Ala-Ala-Phe-amino-methylcoumarine; 37° C., 30 minutes, pH 7.5. As for the experimental part: 1) Determination of the enkephalinase inhibiting effect
The enkephalinase activity was determined from a renal membrane fraction of a rat. The kidneys were removed on ice and homogenized in a HEPES 0.05M pH 7.5 buffer containing magnesium chloride (50 times the volume). After a first centrifugation at 1,500 g, the specific fraction was obtained from a centrifugation at 15,000 g for 20 minutes. The deposit was then washed and suspended in a HEPES buffer and kept at -20° C. An aliquot of this membrane preparation was put in the presence of octyl beta-D-glucopyranoside (50 mM as final […]) for 15 minutes at 4° C. After centrifugation at 100,000 g for one hour, the supernatant was removed and frozen in aliqots at -20° C. The concentration of proteins was determined by the method using Comassie's blue.
An aliquot of the protein fraction thus prepared was preincubated at 25° C. for 10 minutes in a HEPES 0.05M pH 7.5 buffer or in the presence of the product to be studied. The substrate added was a non-natural enkephalin of formula Succinyl-Ala-Ala-Phe-amino-methylcoumarine (reference 1) (40mM as final concentration). The incubation continued at 37° C. for 30 minutes and then the reaction was stopped by heating to 95° C. for 5 minutes and each incubate was centrifuged. A solution of amino peptidase M (4 mM as final concentration) and thiorphan (reference 2) (10^-5 M) was added to the supernatant and the mixture was taken to 37° C. for one hour. The reaction was stopped as previously described and the fluorescence of 7-amino-methyl-coumarine produced was determined. The effect of the products to be tested was determined by calculating the IC50, the concentration which inhibited the hydrolysis of the substrate by 50%.
Reference 1: R. A. Munford, P. A. Pierzchala, A-W Strauss and M. Zimmerman, Purification of a membrane-bound metalloendo peptidase from porcine kidney that degrades peptides hormones. Proc. Natl. Acad. Sci 78, No. 11, p. 6623.
Reference 2: Inhibitor of enkephalinase described in Example 20 of French Patent No. 2,480,747.

Experiment [1] can be described thus: Stretchings caused by acetic acid in a mouse (analgesic activity). The format is in vivo. To be noted: 0.25 h, PO, half-an-hour before intraperitoneal acetic acid, 15 minutes observation, read-out: DA50 (dose which allows a decrease of 50% in the number of stretchings). How it is done:
2) Study of analgesic activity in a mouse Stretchings caused by acetic acid in a mouse
The test used was based on the fact indicated by KOSTER, et al [Fed. Proc. (1959), Vol. 1B, p. 412] according to which the intraperitoneal injection of acetic acid causes, in a mouse, repeated stretching and twisting movements which can persist for more than 6 hours. Analgesics prevent or lessen this syndrome which can be considered as the outward display of a widespread abdominal pain. A 1% solution of acetic acid in water was used and was administered at a volume of 10 ml/kg. The studied product was administered by buccal route half-an-hour before the acetic acid injection, the mice having gone without food for at least 6 hours. The stretchings were observed and counted for Each mouse for an observation period of 15 minutes. The results were expressed by means of the DA50, that is the dose which allows a decrease of 50% in the number of stretchings to be obtained relative to the control animals.

The next experiment is described as follows: Hot-plate test. The format is in vivo. To be noted: Mus musculus, 0.5 h, po, male mice, plate at 56° C., 30 minutes after oral administration; for ED50: read-out: DA50 (dose which increased the reaction time by 50%); for ED100: read-out: DA100 (dose which increased the reaction time by 100%). As for the experimental part: Male mice weighing 22 g were placed individually on a copper plate maintained at 56° C. by a thermostatically-controlled water bath. […] The reaction time to the heat stimulus was noted and only animals reacting within 4.5 and 6.5 seconds were retained. The reaction time to the pain was measured 30 minutes after oral administration. The variations in the reaction time were expressed as a percentage of the initial time. The DA50 and DA100, or doses which increased the reaction time by 50 and 100%, taking into account variations in the control group, were determined by a graph or by the method of the least squares.
For orientation: Thermal pain tests record how soon the animal reacts.

`CCCN(CCC)C(=O)NC(CS)Cc1ccccc1` (single isomer, unassigned; (+)) [Example 18, (+) N,N-dipropyl-N'-[2-mercapto-1-(phenylmethyl)-ethyl]urea] came in with an IC50 on enkephalinase of 180 nM. The ED50 in experiment [1] was 33 mg/kg. Also, in “Hot-plate test”, the ED50 was determined as 33 mg/kg and the ED100 was 100 mg/kg.

At enkephalinase, `CN(O)C(=O)NC(CS)Cc1ccccc1` (single isomer, unassigned; (+)) [Example 6, (+) N-hydroxy-N'-[2-mercapto-1-(phenylmethyl)-ethyl]-N-methyl urea] gave an IC50 of 3.5 nM.

Regarding `COC(=O)CNC(=O)NC(CSC(C)=O)Cc1ccccc1` (stereo not drawn) [Example 11, Methyl N-[[[2-(acetylthio)-1-(phenylmethyl)-ethyl]-amino]-carbonyl]-glycinate], the ED50 in experiment [1] stood at 85 mg/kg; in the experiment “Hot-plate test”, 100 mg/kg.

For the molecule `CC(=O)SCC(Cc1ccccc1)NC(=O)N(C)O` (stereo not drawn) [Example 5], in “Hot-plate test”, the ED50 was 100 mg/kg and the ED100 worked out at 200 mg/kg.

`O=C(Nc1ccccc1)NC(CS)Cc1ccccc1` (single isomer, unassigned; (+)) [Example 16]: half-maximal inhibition against enkephalinase (IC50) was put at 70 nM. For the same molecule, the ED50 in experiment [1] worked out at 50 mg/kg.

Take `CONC(=O)NC(CSC(C)=O)Cc1ccccc1` (stereo not drawn) [Example 1, S-[2-(3-methoxy-ureido)-3-phenyl-propyl]-ethanethioate]: the half-inhibitory concentration (IC50) at enkephalinase turned out to be 87 nM. Moreover, in experiment [1], the ED50 came out at 71 mg/kg.

Regarding `CC(=O)SCC(Cc1ccccc1)NC(=O)Nc1ccccc1` (stereo not drawn) [Example 15, S-[2-(3-phenyl-ureido)-3-phenylpropyl]ethanethioate], on enkephalinase, the IC50 worked out at 100 nM.

Molecule `CCCN(CCC)C(=O)NC(CSC(C)=O)Cc1ccccc1` (stereo not drawn) [Example 17, S-[2-[3-bis(propyl)-ureido]-3-phenyl-propyl]-ethanethioate] gave an IC50 on enkephalinase of 48 nM.

As usually defined, the IC50 is the concentration that gives 50% inhibition. A low value points to greater potency in that assay.
